From patent publication US20060233743A1, “Compositions and methods of therapy” (priority 2002, published 2006)

How the values were obtained:
[1] = tested on: U937 cells; experiment: Example 5: IL-10 and TNFα mRNA in U937 cells; assay type: cell-based, human; conditions: differentiation, PMA 2×10^−7 M
Protocol: U937 (human monocyte cell line) cells were grown in RPMI (PAA Laboratories) medium with 10% fetal calf serum added (PAA Laboratories). Cells were treated with prostaglandin E2 at 10^−6 Molar, Rolipram 10^−6 Molar, Forskolin 50×10^−6 Molar with or without GMCSF at 5 ng/ml for 48 hours. Cells were pelleted and the mRNA was extracted with Tri reagent (Sigma, Poole, UK). Total RNA was obtained by addition of chloroform and subsequent isopropanol precipitation. RNA was reverse transcribed with reverse transcriptase (Applied Biosystems) and random hexamers (Applied Biosystems). Probes and primers for amplification and detection of IL-10 were designed using Primer Express (Applied Biosystems) and are as follows:
As for Example 4 but mRNA for TNFα alpha is also included.
Data is shown as the ratio of IL-10 mRNA/TNFα mRNA. P═PMA=Phorbol myristoyl acetate; F=Fsk=Forskolin, g=GMCSF, C=vehicle control.

[2] = tested on: PDE; conditions: cited from earlier work
[3] = tested on: cells of the immune system; experiment: release of IL-10 from cells of the immune system in the presence of GMCSF; assay type: cell-based
[4] = tested on: type IV PDE; conditions: type IV PDE inhibitor; cited from earlier work

## CCCCCCCCCCCCCC(=O)O[C@@H]1[C@@H](C)[C@@]2(O)[C@@H](C=C(CO)C[C@]3(O)C(=O)C(C)=C[C@@H]23)[C@@H]2C(C)(C)[C@]12OC(C)=O [PMA, Phorbol myristoyl acetate]
[1]
  IL-10 mRNA: increased
[1]; Forskolin 50×10^−6 Molar, GMCSF 5 ng/ml
  TNFα mRNA: also increased

## CC(C)Cn1c(=O)n(C)c(=O)c2[nH]cnc21 [IBMX, 3-isobutyl-1-methylxanthine]
[2]; non-specific PDE inhibitor
  IC50: 2000 to 50000 nM

## Cn1c(=O)c2[nH]cnc2n(C)c1=O [theophylline]
[2]; non-selective inhibitor compared with rolipram
  times less effective than rolipram: 30 times

## CCCCC[C@H](O)/C=C/[C@H]1[C@H](O)CC(=O)[C@@H]1C/C=C\CCCC(=O)O [PGE, prostaglandin E2]
[3]
  stimulation of IL-10: increased strikingly

## 19-hydroxy PGE
[3]
  stimulation of IL-10: increased strikingly

## COc1ccc(C2CNC(=O)C2)cc1OC1CCCC1 (centres unmarked) [rolipram, 4-[3-cyclopentyloxy-4-methoxyphenyl]-2-pyrrolidinone]
[4]
  IC50: 800 nM

## CCCCOc1cc(CC2CNC(=O)N2)ccc1OC (centres unmarked) [Ro-20-1724, 4-[3-butoxy-4-methoxybenzyl]-2-imidazolidinone]
[4]
  IC50: 2000 nM
